Measured values published in ChEMBL document CHEMBL3045591, “Imidazole as an anti-epileptic: an overview” (Med Chem Res, 2012).

Experiments:
[1] = Toxicity in po dosed Rattus norvegicus albino (rat); assay type: organism-based; settings: in vivo
Mus musculus [2] = species: Mus musculus; assay: Anticonvulsant activity in Mus musculus (mouse) assessed as protection against metrazole-induced seizures; assay type: functional
Mus musculus [3] = species: Mus musculus; assay: Anticonvulsant activity in acute seizure Mus musculus (mouse) model assessed as protection against maximal electroshock-induced seizures; assay type: functional
Mus musculus [4] = species: Mus musculus; assay: Anticonvulsant activity in Mus musculus (mouse) assessed as protection against maximal electroshock-induced seizures; assay type: functional
Mus musculus [5] = assay: Anticonvulsant activity in Mus musculus (mouse) assessed protection against subcutaneous pentylenetetrazole-induced seizures; assay type: functional
Mus musculus [6] = species: Mus musculus; assay: Anticonvulsant activity against Mus musculus DBA/2 (mouse) assessed as protection against sound-induced seizure; assay type: functional; settings: read-out: MED
Mus musculus [7] = assay: Anticonvulsant activity in Mus musculus (mouse) assessed as protection against maximal electroshock-induced seizures compound co-administered with losartan 50 mg/kg, ip; assay type: functional; settings: route intraperitoneal

`COc1cccc(-c2nc(-c3ccccc3)c(-c3ccccc3)[nH]2)c1` showed an MTD [1] of no more than 5000 mg/kg.

With `Cc1ncc(C(=O)Oc2ccccc2)n1C(C)c1ccccc1.O=[N+]([O-])O` (stereo not given) the ED50 (Mus musculus [2]) was 68 mg/kg.

`CCCOC(=O)NC1=NCC(c2ccccc2F)N1C` (stereo not given) gave an ED50 (Mus musculus [3]) of 23 mg/kg.

For `CC(C)OC(=O)NC1=NCC(c2ccccc2F)N1C` (stereo not given), the ED50 (Mus musculus [3]) was 23 mg/kg.

Molecule `Clc1ccc(-c2nc(Cn3ccnc3)cs2)cc1` has an Activity (Mus musculus [4]) of 33% and an Activity (Mus musculus [5]) of 33%.

Molecule `COC(=O)c1cnc(C)n1C(C)c1ccccc1.O=[N+]([O-])O` (stereo not given) has an ED50 (Mus musculus [2]) of 68 mg/kg.

In the case of `O=[N+]([O-])c1cc2nc(O)c(O)nc2nc1-n1ccnc1`, the minimal effective dose (Mus musculus [6]) was 10 mg/kg.

`CCCC(CCC)C(=O)O` [VALPROIC ACID] gave an ED50 (Mus musculus [7]) of 195 mg/kg and an ED50 (Mus musculus [4]; Mus musculus) of 250 mg/kg.
